Like-named read-outs stand apart in the source and are kept apart here.
Experiments:
Assay type in all cases: in vivo
Plutella xylostella = Plutella xylostella (diamond back moth), artificial diet, L2 larvae; conditions: 120 h, read-out: effect in at least one of the two categories (mortality or growth inhibition); for percent effect (mortality or growth inhibition) at 200 ppm: application rate 200 ppm, 5 days after infestation, L2 larvae
Experimental: Plutella xylostella (Diamond Back Moth)
(§1) 24-well microtiter plates with artificial diet were treated with aqueous test solutions prepared from 10,000 ppm DMSO stock solutions by pipetting. After drying, the plates were infested with L2 larvae (10 to 15 per well). The samples were assessed for mortality and growth inhibition in comparison to untreated samples 5 days after infestation.

Thrips tabaci = Thrips tabaci (onion thrips), feeding/contact activity; conditions: foliar, 144 h
Experimental: Thrips tabaci (Onion thrips) Feeding/Contact Activity
(§2) Sunflower leaf discs were placed on agar in 24-well microtiter plates and sprayed with aqueous test solutions prepared from 10,000 ppm DMSO stock solutions. After drying the leaf discs were infested with a thrips population of mixed ages. The samples were assessed for mortality 6 days after infestation.

Myzus persicae [1] = assay: Myzus persicae (green peach aphid), feeding/contact activity; conditions: foliar, 144 h
Experimental: Myzus persicae (Green Peach Aphid): Feeding/Contact Activity
Sunflower leaf discs were placed onto agar in a 24-well microtiter plate and sprayed with aqueous test solutions prepared from 10,000 ppm DMSO stock solutions. After drying, the leaf discs were infested with an aphid population of mixed ages. The samples were assessed for mortality 6 days after infestation.

Euschistus heros = Euschistus heros (neotropical brown stink bug), soybean leaves sprayed, N2 nymphs; conditions: 120 h, read-out: effect in at least one of the two categories (mortality or growth inhibition); for percent effect (mortality or growth inhibition) at 200 ppm: application rate 200 ppm, 5 days after infestation, N2 nymphs
Experimental: Euschistus heros (Neotropical Brown Stink Bug)
Soybean leaves on agar in 24-well microtiter plates were sprayed with aqueous test solutions prepared from 10,000 ppm DMSO stock solutions. After drying the leaves were infested with N2 nymphs. The samples were assessed for mortality and growth inhibition in comparison to untreated samples 5 days after infestation.

Spodoptera littoralis = Spodoptera littoralis (Egyptian cotton leaf worm), cotton leaf discs, L1 larvae; conditions: foliar, 72 h, read-out: control (mortality, anti-feedant effect or growth inhibition)
Experimental: Spodoptera littoralis (Egyptian Cotton Leaf Worm)
Cotton leaf discs were placed onto agar in 24-well microtiter plates and sprayed with aqueous test solutions prepared from 10,000 ppm DMSO stock solutions. After drying the leaf discs were infested with five L1 larvae. The samples were assessed for mortality, anti-feeding effect, and growth inhibition in comparison to untreated samples 3 days after infestation. Control of Spodoptera littoralis by a test sample is given when at least one of the categories mortality, anti-feedant effect, and growth inhibition is higher than the untreated sample.

Tetranychus urticae = Tetranychus urticae (two-spotted spider mite), feeding/contact activity; conditions: foliar, 192 h, read-out: mortality on mixed population (mobile stages)
Experimental: Tetranychus urticae (Two-Spotted Spider Mite): Feeding/Contact Activity
as §2, with “Bean” for “Sunflower”, “discs” for “discs were placed”, “were” for “and”, “mite” for “thrips”, “on mixed population (mobile stages) 8” for “6”

Diabrotica balteata = Diabrotica balteata (corn root worm), maize sprouts sprayed, L2 larvae; conditions: 96 h, read-out: effect in at least one of the two categories (mortality or growth inhibition); for percent effect (mortality or growth inhibition) at 200 ppm: application rate 200 ppm, 4 days after infestation, L2 larvae
Experimental: Diabrotica Balteata (Corn Root Worm)
as §1, with “Maize sprouts placed onto an agar layer in 24-well” for “24-well”, “plates” for “plates with artificial diet”, “spraying.” for “pipetting.”, “(6” for “(10”, “10” for “15”, “4” for “5”

Myzus persicae [2] = assay: Myzus persicae (green peach aphid), intrinsic activity; conditions: 120 h
From the text: Myzus persicae (Green Peach Aphid). Intrinsic Activity
Test compounds prepared from 10,000 ppm DMSO stock solutions were applied by pipette into 24-well microtiter plates and mixed with sucrose solution. The plates were closed with a stretched Parafilm. A plastic stencil with 24 holes was placed onto the plate and infested pea seedlings were placed directly on the Parafilm. The infested plate was closed with a gel blotting paper and another plastic stencil and then turned upside down. The samples were assessed for mortality 5 days after infestation.

[3] = application rate 200 ppm, 6 days after infestation, sunflower leaf discs, mixed ages, read-out: mortality
[4] = application rate 200 ppm, 3 days after infestation, L1 larvae
[5] = application rate 200 ppm, 8 days after infestation, bean leaf discs
[6] = test rate 12 ppm, 5 days after infestation, sucrose solution, infested pea seedlings, read-out: mortality

Cc1cc(C2=NCC(c3cc(Cl)c(Cl)c(Cl)c3)(C(F)(F)F)C2)ccc1C(=O)NC1CON(S(C)(=O)=O)C1 (stereo not shown) [Compound A8, 2-methyl-N-(2-methylsulfonylisoxazolidin-4-yl)-4-[3-(3,4,5-trichlorophenyl)-3-(trifluoromethyl)-2,4-dihydropyrrol-5-yl]benzamide]
≥ 80%: percent effect (mortality or growth inhibition) at 200 ppm (Plutella xylostella) | mortality at 200 ppm (Thrips tabaci; [3]) | mortality at 200 ppm (Myzus persicae [1]; [3]) | percent effect (mortality or growth inhibition) at 200 ppm (Euschistus heros) | percent control (mortality, anti-feedant effect or growth inhibition) at 200 ppm (Spodoptera littoralis; [4]) | mortality at 200 ppm (Tetranychus urticae; [5]) | percent effect (mortality or growth inhibition) at 200 ppm (Diabrotica balteata) | mortality at 12 ppm (Myzus persicae [2]; [6])

Cc1cc(C2=NS[C@@](c3cc(Cl)cc(Cl)c3)(C(F)(F)F)C2)ccc1C(=O)NC1CON(S(C)(=O)=O)C1 (stereo partly drawn) [Compound A2, 4-[(5S)-5-(3,5-dichlorophenyl)-5-(trifluoromethyl)-4H-isothiazol-3-yl]-2-methyl-N-(2-methylsulfonylisoxazolidin-4-yl)benzamide]
≥ 80%: percent effect (mortality or growth inhibition) at 200 ppm (Plutella xylostella) | mortality at 200 ppm (Thrips tabaci; [3]) | mortality at 200 ppm (Myzus persicae [1]; [3]) | percent effect (mortality or growth inhibition) at 200 ppm (Euschistus heros) | percent control (mortality, anti-feedant effect or growth inhibition) at 200 ppm (Spodoptera littoralis; [4]) | mortality at 200 ppm (Tetranychus urticae; [5]) | percent effect (mortality or growth inhibition) at 200 ppm (Diabrotica balteata) | mortality at 12 ppm (Myzus persicae [2]; [6])

CS(=O)(=O)N1CC(NC(=O)c2ccc(C3=CSC(c4cc(Cl)c(Cl)c(Cl)c4)(C(F)(F)F)C3)cc2Cl)CO1 (stereo not shown) [Compound A1, 2-chloro-N-(2-methylsulfonylisoxazolidin-4-yl)-4-[2-(3,4,5-trichlorophenyl)-2-(trifluoromethyl)-3H-thiophen-4-yl]benzamide]
≥ 80%: percent effect (mortality or growth inhibition) at 200 ppm (Plutella xylostella) | mortality at 200 ppm (Thrips tabaci; [3]) | percent effect (mortality or growth inhibition) at 200 ppm (Euschistus heros) | percent control (mortality, anti-feedant effect or growth inhibition) at 200 ppm (Spodoptera littoralis; [4]) | mortality at 200 ppm (Tetranychus urticae; [5]) | percent effect (mortality or growth inhibition) at 200 ppm (Diabrotica balteata) | mortality at 12 ppm (Myzus persicae [2]; [6])

Cc1cc(C2=NO[C@](c3cc(Cl)cc(Cl)c3)(C(F)(F)F)[C@H]2Cl)ccc1C(=O)NC1CON(S(C)(=O)=O)C1 (stereo partly drawn) [Compound A4, 4-[(4S,5R)-4-chloro-5-(3,5-dichlorophenyl)-5-(trifluoromethyl)-4H-isoxazol-3-yl]-2-methyl-N-(2-methylsulfonylisoxazolidin-4-yl)benzamide]
≥ 80%: percent control (mortality or growth inhibition) at 200 ppm (Plutella xylostella) | mortality at 200 ppm (Thrips tabaci) | mortality at 200 ppm (Myzus persicae [1]) | percent control (mortality or growth inhibition) at 200 ppm (Euschistus heros) | percent control (mortality, anti-feedant effect or growth inhibition) at 200 ppm (Spodoptera littoralis) | mortality at 200 ppm (Tetranychus urticae) | percent control (mortality or growth inhibition) at 200 ppm (Diabrotica balteata) | mortality at 12 ppm (Myzus persicae [2])

Cc1cc(C2=NCC(c3cc(Cl)c(F)c(Cl)c3)(C(F)(F)F)C2)ccc1C(=O)NC1CON(S(C)(=O)=O)C1 (stereo not shown) [Compound A7, 4-[3-(3,5-dichloro-4-fluoro-phenyl)-3-(trifluoromethyl)-2,4-dihydropyrrol-5-yl]-2-methyl-N-(2-methylsulfonylisoxazolidin-4-yl)benzamide]
≥ 80%: percent effect (mortality or growth inhibition) at 200 ppm (Plutella xylostella) | mortality at 200 ppm (Thrips tabaci; [3]) | mortality at 200 ppm (Myzus persicae [1]; [3]) | percent effect (mortality or growth inhibition) at 200 ppm (Euschistus heros) | percent control (mortality, anti-feedant effect or growth inhibition) at 200 ppm (Spodoptera littoralis; [4]) | mortality at 200 ppm (Tetranychus urticae; [5]) | percent effect (mortality or growth inhibition) at 200 ppm (Diabrotica balteata) | mortality at 12 ppm (Myzus persicae [2]; [6])

Cc1cc(C2=COC(c3cc(Cl)cc(Cl)c3)(C(F)(F)F)C2)ccc1C(=O)NC1CON(S(C)(=O)=O)C1 (stereo not shown) [Compound A3, 4-[2-(3,5-dichlorophenyl)-2-(trifluoromethyl)-3H-furan-4-yl]-2-methyl-N-(2-methylsulfonylisoxazolidin-4-yl)benzamide]
≥ 80%: percent effect (mortality or growth inhibition) at 200 ppm (Plutella xylostella) | mortality at 200 ppm (Thrips tabaci; [3]) | percent effect (mortality or growth inhibition) at 200 ppm (Euschistus heros) | percent control (mortality, anti-feedant effect or growth inhibition) at 200 ppm (Spodoptera littoralis; [4]) | mortality at 200 ppm (Tetranychus urticae; [5]) | percent effect (mortality or growth inhibition) at 200 ppm (Diabrotica balteata) | mortality at 12 ppm (Myzus persicae [2]; [6])

Cc1cc(C2=NCC(c3cc(Cl)cc(Cl)c3)(C(F)(F)F)C2)ccc1C(=O)NC1CON(S(C)(=O)=O)C1 (stereo not shown) [Compound A5, 4-[3-(3,5-dichlorophenyl)-3-(trifluoromethyl)-2,4-dihydropyrrol-5-yl]-2-methyl-N-(2-methylsulfonylisoxazolidin-4-yl)benzamide]
≥ 80%: percent effect (mortality or growth inhibition) at 200 ppm (Plutella xylostella) | mortality at 200 ppm (Thrips tabaci; [3]) | mortality at 200 ppm (Myzus persicae [1]; [3]) | percent effect (mortality or growth inhibition) at 200 ppm (Euschistus heros) | percent control (mortality, anti-feedant effect or growth inhibition) at 200 ppm (Spodoptera littoralis; [4]) | mortality at 200 ppm (Tetranychus urticae; [5]) | percent effect (mortality or growth inhibition) at 200 ppm (Diabrotica balteata) | mortality at 12 ppm (Myzus persicae [2]; [6])

Cc1cc(C2=NCC(c3cc(Cl)cc(Cl)c3)(C(F)(F)F)C2)ccc1C(=O)N[C@H]1CON(S(=O)(=O)N(C)C)C1 (stereo partly drawn) [Compound A14, 4-[3-(3,5-dichlorophenyl)-3-(trifluoromethyl)-2,4-dihydropyrrol-5-yl]-N-[(4R)-2-(dimethylsulfamoyl)isoxazolidin-4-yl]-2-methyl-benzamide]
≥ 80%: percent effect (mortality or growth inhibition) at 200 ppm (Plutella xylostella) | mortality at 200 ppm (Thrips tabaci; [3]) | mortality at 200 ppm (Myzus persicae [1]; [3]) | percent effect (mortality or growth inhibition) at 200 ppm (Euschistus heros) | percent control (mortality, anti-feedant effect or growth inhibition) at 200 ppm (Spodoptera littoralis; [4]) | mortality at 200 ppm (Tetranychus urticae; [5]) | percent effect (mortality or growth inhibition) at 200 ppm (Diabrotica balteata)
